According to ChEMBL document CHEMBL1201862, “PubChem BioAssay data set” (2004):
“And” between values parts separate entries of the source, which are not always exact repeats. Equal entries are not always repeated.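 Assay format: 96-well plates, 48-hour exposure. GI50 marks 50% less growth.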 The source made the active and inactive calls. No stated cut-off is given here; in the data, active = GI50 up to about 1.1 µM and inactive = higher.

How the values were obtained:
Experiment in all cases: NCI-60 cell line screen, 48 h
U-251 = tested on: U-251
OVCAR-3 = tested on: OVCAR-3
EKVX = tested on: EKVX
BT-549 = tested on: BT-549
SK-MEL-28 = tested on: SK-MEL-28
HL-60 = tested on: HL-60
MDA-N = tested on: MDA-N
OVCAR-4 = tested on: OVCAR-4
CCRF-CEM = tested on: CCRF-CEM
M14 = tested on: M14
TK-10 = tested on: TK-10
NCI/ADR-RES = tested on: NCI/ADR-RES
IGROV-1 = tested on: IGROV-1
HCT-116 = tested on: HCT-116
MDA-MB-231 = tested on: MDA-MB-231
CAKI-1 = tested on: CAKI-1
MDA-MB-435 = tested on: MDA-MB-435
ACHN = tested on: ACHN
A498 = tested on: A498
HCT-15 = tested on: HCT-15
RPMI-8226 = tested on: RPMI-8226
Hs-578T = tested on: Hs-578T
SN12C = tested on: SN12C
OVCAR-5 = tested on: OVCAR-5
MOLT-4 = tested on: MOLT-4
NCI-H460 = tested on: NCI-H460
COLO 205 = tested on: COLO 205
HT-29 = tested on: HT-29
KM12 = tested on: KM12
SF-268 = tested on: SF-268
NCI-H226 = tested on: NCI-H226
SK-MEL-2 = tested on: SK-MEL-2
OVCAR-8 = tested on: OVCAR-8
SK-OV-3 = tested on: SK-OV-3
RXF 393 = tested on: RXF 393
DU-145 = tested on: DU-145
SF-295 = tested on: SF-295
PC-3 = tested on: PC-3
NCI-H23 = tested on: NCI-H23
HOP-62 = tested on: HOP-62
NCI-H522 = tested on: NCI-H522
UO-31 = tested on: UO-31
UACC-257 = tested on: UACC-257
SNB-75 = tested on: SNB-75
786-0 = tested on: 786-0
Malme-3M = tested on: Malme-3M
SK-MEL-5 = tested on: SK-MEL-5
SNB-19 = tested on: SNB-19
UACC-62 = tested on: UACC-62
SW-620 = tested on: SW-620
K562 = tested on: K562
A549 = tested on: A549
T47D = tested on: T47D
SF-539 = tested on: SF-539
HCC 2998 = tested on: HCC 2998
LOX IMVI = tested on: LOX IMVI
HOP-92 = tested on: HOP-92
MCF7 = tested on: MCF7
SR = tested on: SR

Measured: GI50

CCCNC1=Nc2ccccc2N(Cc2ccccc2)CC1
20.7 µM: HCT-15
inactive: U-251 18 µM | OVCAR-3 32.4 µM | EKVX 30.5 µM | BT-549 15.5 µM | SK-MEL-28 13.3 µM | HL-60 12.9 µM | MDA-N 26 µM | OVCAR-4 35 µM | CCRF-CEM 21 µM | M14 14.3 µM | TK-10 27.8 µM | NCI/ADR-RES 16.1 µM | IGROV-1 4.54 µM | HCT-116 29.7 µM | MDA-MB-231 20.3 µM | CAKI-1 21.3 µM | MDA-MB-435 19.1 µM | ACHN 23.2 µM | A498 11.4 µM | RPMI-8226 12.9 µM | Hs-578T 14.9 µM | SN12C 31.5 µM | OVCAR-5 40.2 µM | MOLT-4 10.9 µM | NCI-H460 13.4 µM | COLO 205 10.9 µM | HT-29 19.5 µM | KM12 22.5 µM | SF-268 15.7 µM | NCI-H226 26.6 µM | SK-MEL-2 17 µM | OVCAR-8 14.9 µM | SK-OV-3 28.2 µM | RXF 393 11.6 µM | DU-145 33.9 µM | SF-295 24.9 µM | PC-3 19.3 µM | NCI-H23 16.5 µM | HOP-62 30.5 µM | NCI-H522 13.9 µM | UO-31 30.3 µM | UACC-257 14.4 µM | SNB-75 5.62 µM | 786-0 32.4 µM | Malme-3M 10.3 µM | SK-MEL-5 15 µM | SNB-19 22.2 µM | UACC-62 13.5 µM | SW-620 23.7 µM | K562 5.57 µM | A549 35.4 µM

O/N=C/C1C(OCc2ccccc2)C(OCc2ccccc2)C(OCc2ccccc2)CN1Cc1ccccc1 (centres undefined)
inactive: U-251 9.16 µM and 15.5 µM | EKVX 41.2 µM | BT-549 15.3 µM | SK-MEL-28 14.3 µM and 15.2 µM | HL-60 13.1 µM | MDA-N 16 µM and 12.4 µM | OVCAR-4 6.41 µM | CCRF-CEM 3.37 µM and 3.65 µM | T47D 5.26 µM | IGROV-1 22.1 µM and 34 µM | HCT-116 3.89 µM and 4.97 µM | MDA-MB-231 4.15 µM | CAKI-1 2.74 µM | A498 5.2 µM | RPMI-8226 22.6 µM | MOLT-4 2.77 µM and 1.52 µM | SF-268 16.7 µM and > 10 µM | SK-MEL-2 19.6 µM | OVCAR-8 16 µM and 13.1 µM | RXF 393 3.51 µM | DU-145 35.2 µM and 60.4 µM | SF-539 7.26 µM | SF-295 6.15 µM and 10.7 µM | NCI-H522 9.55 µM | HCC 2998 7.48 µM | 786-0 8.99 µM and 5.94 µM | SK-MEL-5 11.7 µM | LOX IMVI 10.6 µM and 6 µM | SNB-19 29.4 µM and 38.8 µM | UACC-62 13.9 µM and 18.7 µM | SW-620 5.41 µM and 10.2 µM | K562 3.82 µM and 4.53 µM | A549 4.44 µM and 7.87 µM

COc1ccc(COC(=O)NNC(=O)C2CSC(c3ccccc3)N2C(C)=O)cc1 (centres undefined)
inactive: U-251 > 100 µM | OVCAR-3 > 100 µM | EKVX > 100 µM | BT-549 > 100 µM | HL-60 > 100 µM | MDA-N > 100 µM | HOP-92 > 100 µM | OVCAR-4 > 100 µM | CCRF-CEM > 100 µM | M14 > 100 µM | TK-10 > 100 µM | NCI/ADR-RES > 100 µM | IGROV-1 > 100 µM | HCT-116 > 100 µM | CAKI-1 > 100 µM | MDA-MB-435 > 100 µM | ACHN > 100 µM | A498 > 100 µM | RPMI-8226 > 100 µM | Hs-578T > 100 µM | SN12C > 100 µM | OVCAR-5 > 100 µM | MOLT-4 > 100 µM | NCI-H460 > 100 µM | HT-29 > 100 µM | KM12 > 100 µM | SF-268 > 100 µM | NCI-H226 > 100 µM | SK-MEL-2 > 100 µM | OVCAR-8 > 100 µM | SK-OV-3 > 100 µM | DU-145 > 100 µM | SF-539 > 100 µM | SF-295 > 100 µM | PC-3 > 100 µM | NCI-H23 > 100 µM | HOP-62 > 100 µM | NCI-H522 > 100 µM | HCC 2998 > 100 µM | UO-31 > 100 µM | UACC-257 > 100 µM | SNB-75 > 100 µM | 786-0 > 100 µM | Malme-3M > 100 µM | SK-MEL-5 > 100 µM | LOX IMVI > 100 µM | MCF7 > 100 µM | SNB-19 > 100 µM | UACC-62 > 100 µM | SW-620 > 100 µM | K562 > 100 µM | A549 > 100 µM
> 100 µM: HCT-15

CCOC(=O)c1sc2nc(SC)nc(Nc3ccc4c(c3)OCCCO4)c2c1N
inactive: U-251 46.5 µM | OVCAR-3 16.5 µM | EKVX 10.6 µM | BT-549 17.5 µM | SK-MEL-28 > 100 µM | HL-60 > 100 µM | MDA-N 20.5 µM | HOP-92 61.1 µM | OVCAR-4 5.47 µM | CCRF-CEM 4.66 µM | M14 17.3 µM | T47D 2.14 µM | TK-10 40.6 µM | NCI/ADR-RES 8.93 µM | IGROV-1 > 100 µM | HCT-116 67.1 µM | MDA-MB-231 33 µM | CAKI-1 > 100 µM | MDA-MB-435 11.1 µM | ACHN 26.9 µM | A498 26.7 µM | RPMI-8226 4.25 µM | SR 16.7 µM | SN12C > 100 µM | OVCAR-5 > 100 µM | MOLT-4 2.55 µM | COLO 205 41.5 µM | HT-29 32.8 µM | KM12 24.2 µM | SF-268 20.8 µM | NCI-H226 42.2 µM | SK-MEL-2 62.5 µM | OVCAR-8 11.4 µM | SK-OV-3 55.6 µM | RXF 393 11.8 µM | DU-145 31.8 µM | SF-539 14.3 µM | SF-295 8.95 µM | PC-3 20 µM | NCI-H23 5.92 µM | HOP-62 20.1 µM | NCI-H522 3.3 µM | HCC 2998 25.2 µM | UO-31 85.1 µM | UACC-257 7.82 µM | 786-0 19.3 µM | Malme-3M 16.7 µM | SK-MEL-5 3.29 µM | LOX IMVI 34.8 µM | MCF7 7.71 µM | SNB-19 > 100 µM | UACC-62 9.84 µM | SW-620 17.5 µM | K562 9.04 µM | A549 8.47 µM
10.9 µM: HCT-15
